Test results taken from ChEMBL document CHEMBL4673230, “Total Synthesis of Natural Lembehyne C and Investigation of Its Cytotoxic Properties” (J Nat Prod, 2020).

How the values were obtained:
Jurkat [1] = experiment: Induction of cell cycle arrest in human Jurkat cells assessed as accumulation at G2 phase at 100 nM after 24 hrs by Guava Cell Cycle reagent based flow cytometric analysis relative to control; type: functional
Jurkat [2] = experiment: Induction of apoptosis in human Jurkat cells assessed as late apoptotic cells at 200 nM after 24 hrs by Annexin V/7-AAD staining.based flow cytometric analysis relative to control; type: functional
[3] = Effect on total STAT5 level in human jurkat cells at 400 nM by magnetic bead based immunoassay; type: cell-based; conditions: 0.4 µM
Jurkat [4] = experiment: Induction of ROS generation in human Jurkat cells assessed as living undamaged cells at 200 nM after 24 hrs by MitoSox Red/annexin V-CF488A staining based flow cytometric analysis (reference value: 95.44%); type: functional
[5] = Effect on total p38 level in human jurkat cells at 400 nM by magnetic bead based immunoassay; type: cell-based; conditions: 0.4 µM
[6] = Effect on total p70S6K level in human jurkat cells at 400 nM by magnetic bead based immunoassay; type: cell-based; conditions: 0.4 µM
Jurkat [7] = experiment: Induction of mitochondrial membrane potential loss in human Jurkat cells after 4 hrs by flow cytometric analysis; type: functional, cell-based
[8] = Effect on total JNK in human jurkat cells at 400 nM by magnetic bead based immunoassay; type: cell-based; conditions: 0.4 µM
Jurkat [9] = experiment: Induction of apoptosis in human Jurkat cells assessed as viable cells at 400 nM after 24 hrs by Annexin V/7-AAD staining.based flow cytometric analysis relative to control; type: functional; conditions: read-out: Activity
Jurkat [10] = experiment: Induction of cell cycle arrest in human Jurkat cells assessed as accumulation at sub-G1 phase at 100 nM after 24 hrs by Guava Cell Cycle reagent based flow cytometric analysis relative to control; type: functional
HL-60 = experiment: Cytotoxicity against human HL-60 cells assessed as reduction in cell viability by 7-AAD staining based flow cytometric analysis; type: functional
Jurkat [11] = experiment: Induction of apoptosis in human Jurkat cells assessed as early apoptotic cells at 50 nM after 24 hrs by Annexin V/7-AAD staining.based flow cytometric analysis relative to control; type: functional
Jurkat [12] = experiment: Induction of cell cycle arrest in human Jurkat cells assessed as accumulation at S phase at 200 nM after 24 hrs by Guava Cell Cycle reagent based flow cytometric analysis relative to control; type: functional
Jurkat [13] = experiment: Induction of apoptosis in human Jurkat cells assessed as viable cells at 200 nM after 24 hrs by Annexin V/7-AAD staining.based flow cytometric analysis relative to control; type: functional; conditions: read-out: Activity
Jurkat [14] = experiment: Induction of apoptosis in human Jurkat cells assessed as necrotic cells at 100 nM after 24 hrs by Annexin V/7-AAD staining.based flow cytometric analysis relative to control; type: functional
Jurkat [15] = experiment: Induction of cell cycle arrest in human Jurkat cells assessed as accumulation at super-G2 phase at 100 nM after 24 hrs by Guava Cell Cycle reagent based flow cytometric analysis relative to control; type: functional
Jurkat [16] = experiment: Induction of apoptosis in human Jurkat cells assessed as viable cells at 50 nM after 24 hrs by Annexin V/7-AAD staining.based flow cytometric analysis relative to control; type: functional; conditions: read-out: Activity
Jurkat [17] = experiment: Induction of mitochondrial membrane potential loss in human Jurkat cells assessed as live cells at 200 nM after 4 hrs by MitoSense Red/7-AAD. flow cytometric analysis relative to control; type: functional
[18] = Effect on total CREB level in human jurkat cells at 400 nM by magnetic bead based immunoassay; type: cell-based; conditions: 0.4 µM
Jurkat [19] = experiment: Induction of cell cycle arrest in human Jurkat cells assessed as accumulation at S phase at 400 nM after 24 hrs by Guava Cell Cycle reagent based flow cytometric analysis relative to control; type: functional
Jurkat [20] = experiment: Induction of ROS generation in human Jurkat cells assessed as apoptotic cells at 200 nM after 24 hrs by MitoSox Red/annexin V-CF488A staining based flow cytometric analysis (reference value: 3.18%); type: functional
Jurkat [21] = experiment: Induction of apoptosis in human Jurkat cells assessed as early apoptotic cells at 100 nM after 24 hrs by Annexin V/7-AAD staining.based flow cytometric analysis relative to control; type: functional
Jurkat [22] = experiment: Induction of cell cycle arrest in human Jurkat cells assessed as accumulation at G2 phase at 200 nM after 24 hrs by Guava Cell Cycle reagent based flow cytometric analysis relative to control; type: functional
Jurkat [23] = experiment: Induction of cell cycle arrest in human Jurkat cells assessed as accumulation at G2 phase at 400 nM after 24 hrs by Guava Cell Cycle reagent based flow cytometric analysis relative to control; type: functional
Jurkat [24] = experiment: Induction of apoptosis in human Jurkat cells assessed as viable cells at 100 nM after 24 hrs by Annexin V/7-AAD staining.based flow cytometric analysis relative to control; type: functional; conditions: read-out: Activity
[25] = Effect on total ERK1/2 level in human jurkat cells at 400 nM by magnetic bead based immunoassay; type: cell-based; conditions: 0.4 µM
Jurkat [26] = experiment: Induction of ROS generation in human Jurkat cells assessed as apoptotic cells with clear mitochondrial damages at 200 nM after 4 hrs by MitoSox Red/annexin V-CF488A staining based flow cytometric analysis (reference value: 0.39%); type: functional
Jurkat [27] = experiment: Induction of apoptosis in human Jurkat cells assessed as necrotic cells at 50 nM after 24 hrs by Annexin V/7-AAD staining.based flow cytometric analysis relative to control; type: functional
[28] = Effect on total AKT level in human jurkat cells at 400 nM by magnetic bead based immunoassay; type: cell-based; conditions: 0.4 µM
Jurkat [29] = experiment: Induction of mitochondrial membrane potential loss in human Jurkat cells assessed as early apoptotic cells at 200 nM after 4 hrs by MitoSense Red/7-AAD. flow cytometric analysis relative to control; type: functional
Jurkat [30] = experiment: Induction of apoptosis in human Jurkat cells assessed as early apoptotic cells at 400 nM after 24 hrs by Annexin V/7-AAD staining.based flow cytometric analysis relative to control; type: functional
Jurkat [31] = experiment: Induction of apoptosis in human Jurkat cells assessed as early apoptotic cells at 200 nM after 24 hrs by Annexin V/7-AAD staining.based flow cytometric analysis relative to control; type: functional
Jurkat [32] = experiment: Induction of cell cycle arrest in human Jurkat cells assessed as accumulation at G1 phase at 50 nM after 24 hrs by Guava Cell Cycle reagent based flow cytometric analysis relative to control; type: functional
Jurkat [33] = experiment: Induction of ROS generation in human Jurkat cells at 200 nM after 2 hrs by MitoSox Red/annexin V-CF488A staining based flow cytometric analysis relative to control; type: functional
U-937 = experiment: Cytotoxicity against human U937 cells assessed as reduction in cell viability by 7-AAD staining based flow cytometric analysis; type: functional
Jurkat [34] = experiment: Induction of cell cycle arrest in human Jurkat cells assessed as accumulation at G2/G1 phase at 200 nM after 24 hrs by Guava Cell Cycle reagent based flow cytometric analysis relative to control; type: functional
K562 = experiment: Cytotoxicity against human K562 cells assessed as reduction in cell viability by 7-AAD staining based flow cytometric analysis; type: functional
Jurkat [35] = experiment: Induction of mitochondrial membrane potential loss in human Jurkat cells assessed as late apoptotic cells at 200 nM after 4 hrs by MitoSense Red/7-AAD. flow cytometric analysis relative to control; type: functional
Jurkat [36] = experiment: Induction of ROS generation in human Jurkat cells assessed as apoptotic cells at 200 nM after 4 hrs by MitoSox Red/annexin V-CF488A staining based flow cytometric analysis (reference value: 3.18%); type: functional

In the case of C#C[C@H](O)CCCCCCCCC/C=C\CC/C=C\CC/C=C\CCCCCCCCCCCCCCCC, the Activity (Jurkat [1]) is reported as 7.28%, the Activity (Jurkat [2]) is reported as 43.15% and the Activity [3] is reported as “Toxic”. For the same compound, the Activity (Jurkat [4]) was 33.64%, the Activity [5] was “Toxic” and the Activity [6] was “Toxic”. The Activity (Jurkat [7]) was “Dose-dependent effect”, the Activity [8] was “Toxic” and the viability at 0.4 µM (Jurkat [9]) was 32.9%. For the same compound, the Activity (Jurkat [10]) was 13.99%, the IC50 (HL-60) was 93 nM and the Activity (Jurkat [11]) was 14.25%. For the same compound, the Activity (Jurkat [12]) was 28.57%, the viability at 0.2 µM (Jurkat [13]) was 36.1% and the Activity (Jurkat [14]) was 5.89%. The Activity (Jurkat [15]) was 1.21%, the viability at 0.05 µM (Jurkat [16]) was 59.8% and the Activity (Jurkat [17]) was 95.64%. The Activity [18] was “Toxic”, the Activity (Jurkat [19]) was 31.5% and the Activity (Jurkat [20]) was 45.78%. It also gave an Activity (Jurkat [21]) of 12.63%, an Activity (Jurkat [22]) of 8.65% and an Activity (Jurkat [23]) of 7.68%. For the same compound, the viability at 0.1 µM (Jurkat [24]) was 41.7%, the Activity [25] was “Toxic” and the Activity (Jurkat [26]) was 25.4%. For the same compound, the Activity (Jurkat [27]) was 2.4%, the Activity [28] was “Toxic” and the Activity (Jurkat [29]) was 0.9%. The Activity (Jurkat [30]) was 15.86%, the Activity (Jurkat [31]) was 13.2% and the Activity (Jurkat [32]) was 44.65%. The Activity (Jurkat [33]) was 25.4%, the IC50 (U-937) was 124 nM and the Activity (Jurkat [34]) was 1.91%. For the same compound, the IC50 (K562) was 373 nM, the Activity (Jurkat [35]) was 0.84% and the Activity (Jurkat [36]) was 3.67%.
